# Reference: patent US20250082717A1, “COMPOSITIONS FOR TREATING KIDNEY DISEASE” (RHYTHM PHARMACEUTICALS, INC., priority 2018, published 2025)
# “Also recorded” adds a separate entry of the source.
# Key:
# [1] = tested on: BBS10^−/− mice on high-fat/high-glucose diet; experiment: Escalating setmelanotide dosing study over 10 days, plasma leptin by ELISA; type: in vivo; conditions: obese BBS10^−/− mice on HF/HG diet; escalating doses 0.05-1.25 mg/kg over 10 days; disproportionate from body weight loss
# Description: (§1) In order to assess the effect of setmelanotide on plasma leptin levels disproportionate from body weight loss, BBS10^−/− and wild type mice were fed a high fat/high glucose diet from weaning and body weight assessed on a weekly basis. At four months of age, mice were transferred to metabolic cages and acclimated for 3 days. An escalating setmelanotide dosing study over 10-days was conducted in accordance with regimen shown below in Table 1:
# (§2) At the completion of the study, mice were sacrificed and blood and kidney collected for analysis of circulating leptin concentration and IL-23 mRNA expression, respectively. Plasma leptin concentrations were determined using a leptin ELISA kit (Catalog: #: EZML-82K, Millipore, Billerica, Massachusetts, USA). For analysis of renal IL-23 expression messenger RNA was extracted from tissue samples using TRIzol® reagent (#15596-018, Life Technologies, USA). […] The real-time quantitative PCR reaction was performed in a C1000™ thermocycler (CFX96, Real-Time System, BioRad, USA) using SYBR® Green. […] Results were analyzed with the CFX Manager™ software (BioRad, USA). Gene expression quantification was assessed by reporting measured levels relative to Gapdh expression in each separate sample.
# [2] = tested on: BBS10^−/− mice on high-fat/high-glucose diet; experiment: Escalating setmelanotide dosing study over 10 days, renal IL-23 mRNA expression by real-time quantitative PCR; type: in vivo; conditions: obese BBS10^−/− mice on HF/HG diet; escalating doses 0.05-1.25 mg/kg over 10 days; relative to Gapdh
# Description: as §1, §2
# BBS10^−/− mice = experiment: Setmelanotide daily for one week, body weight and plasma and urine biomarker levels; type: in vivo
# Description: In order to assess the effect of setmelanotide on body weight and the levels of certain biomarkers, BBS10^−/− mice were administered setmelanotide (1.25 mg/kg) daily for one week. […] However, setmelanotide treatment did result in an increase in urine calcium levels as well as an increase in urine creatine levels (FIG. 4).
# Additional studies in these mice entailed measurement of blood plasma levels of the biomarkers leptin and adiponectin after treatment with setmelanotide (1.25 mg/kg). […] Further, the leptin: adiponectin ration was decreased in setmelanotide treated mice.
# [3] = clinical trials (Chen et al. J. Clin. Endocrinol. Metab. 2015); cited from earlier work
smiles,measurement,setting,value
"CC(=O)N[C@@H](CCCNC(=N)N)C(=O)N[C@H]1CSSC[C@@H](C(N)=O)NC(=O)[C@H](Cc2c[nH]c3ccccc23)NC(=O)[C@H](CCCNC(=N)N)NC(=O)[C@@H](Cc2ccccc2)NC(=O)[C@H](Cc2cnc[nH]2)NC(=O)[C@@H](C)NC1=O [setmelanotide, Ac-Arg-c (Cys-D-Ala-His-D-Phe-Arg-Trp-Cys)-NH2]",plasma leptin levels,[1],lowers; also recorded: decrease
same,renal IL-23 mRNA expression,[2],lowers; also recorded: normalization
same,body weight,BBS10^−/− mice; 1.25 mg/kg daily for one week,Lowered
same,urine calcium levels,BBS10^−/− mice; 1.25 mg/kg daily for one week,increase
same,urine creatine levels,"BBS10^−/− mice; 1.25 mg/kg daily for one week, FIG. 4",increase
same,blood plasma levels of leptin,"BBS10^−/− mice; 1.25 mg/kg, effect not seen in vehicle and pair-fed mice, FIG. 5A",decreasing levels
same,blood plasma levels of adiponectin,"BBS10^−/− mice; 1.25 mg/kg, effect not seen in vehicle and pair-fed mice, FIG. 5B",increased levels
same,leptin: adiponectin ration,"BBS10^−/− mice; 1.25 mg/kg, effect not seen in vehicle and pair-fed mice, FIG. 5C",decreased
same,effect on blood pressure,[3],has not been shown to adversely affect blood pressure
